Reference: patent US20100291168A1, “ANTIMICROBIAL FORMULATIONS COMPRISING A COMBINATION OF A PYRIDINE THIOL AND A BIS-QUINOLINIUM SALT” (priority 2007, published 2010)

Key:
P. granulosum PRP-019 = type: cell-based, Propionibacterium granulosum; settings: P. granulosum PRP-019 (MLSK); 50 μg DC or 200 μg ZP per disc
Experimental: (§1) Some of these strains have known antibiotic resistance.
(§2) All the experiments were conducted in triplicate.

P. granulosum PRP-043 = type: cell-based, Propionibacterium granulosum; settings: P. granulosum PRP-043 (MLS); 50 μg DC or 200 μg ZP per disc
Experimental: as §1, §2

P. granulosum PRP-044 = type: cell-based, Propionibacterium granulosum; settings: P. granulosum PRP-044 (MLS); 50 μg DC or 200 μg ZP per disc
Experimental: as §1, §2

P. granulosum PRP-005 = type: cell-based, Propionibacterium granulosum; settings: P. granulosum PRP-005 (MLSK); 50 μg DC or 200 μg ZP per disc
Experimental: as §1, §2

P. granulosum PRP-021 = type: cell-based, Propionibacterium granulosum; settings: P. granulosum PRP-021 (MLS); 50 μg DC or 200 μg ZP per disc
Experimental: as §1, §2

P. granulosum PRP-006 = type: cell-based, Propionibacterium granulosum; settings: P. granulosum PRP-006 (MLS); 50 μg DC or 200 μg ZP per disc
Experimental: as §1, §2

P. acnes PRP-004 = type: cell-based, Propionibacterium acnes; settings: P. acnes PRP-004 (Tet); 50 μg DC or 200 μg ZP per disc
Experimental: as §1, §2

P. acnes PRP-023 = type: cell-based, Propionibacterium acnes; settings: P. acnes PRP-023 (MLSK); 50 μg DC or 200 μg ZP per disc
Experimental: as §1, §2

P. acnes PRP-008 = type: cell-based, Propionibacterium acnes; settings: P. acnes PRP-008 (Clin); 50 μg DC or 200 μg ZP per disc
Experimental: as §1, §2

P. acnes PRP-002 = type: cell-based, Propionibacterium acnes; settings: P. acnes PRP-002 (Tet/MLS); 50 μg DC or 200 μg ZP per disc
Experimental: as §1, §2

P. acnes PRP-102 = type: cell-based, Propionibacterium acnes; settings: P. acnes PRP-102 (Tet/MLS); 50 μg DC or 200 μg ZP per disc
Experimental: as §1, §2

P. acnes PRP-059 = type: cell-based, Propionibacterium acnes; settings: P. acnes PRP-059 (MLS); 50 μg DC or 200 μg ZP per disc
Experimental: as §1, §2

P. acnes PRP-017 = type: cell-based, Propionibacterium acnes; settings: P. acnes PRP-017 (MLS); 50 μg DC or 200 μg ZP per disc
Experimental: as §1, §2

P. acnes PRP-003 = type: cell-based, Propionibacterium acnes; settings: P. acnes PRP-003 (Tet); 50 μg DC or 200 μg ZP per disc
Experimental: as §1, §2

P. acnes PRP-053 = type: cell-based, Propionibacterium acnes; settings: P. acnes PRP-053 (Tet/MLS); 50 μg DC or 200 μg ZP per disc
Experimental: as §1, §2

P. acnes PRP-101 = type: cell-based, Propionibacterium acnes; settings: P. acnes PRP-101 (Tet/MLS); 50 μg DC or 200 μg ZP per disc
Experimental: as §1, §2

P. acnes PRP-026 = type: cell-based, Propionibacterium acnes; settings: P. acnes PRP-026 (MLS); 50 μg DC or 200 μg ZP per disc
Experimental: as §1, §2

P. acnes PRP-068 = type: cell-based, Propionibacterium acnes; settings: P. acnes PRP-068 (Ery); 50 μg DC or 200 μg ZP per disc
Experimental: as §1, §2

P. acnes PRP-039 = type: cell-based, Propionibacterium acnes; settings: P. acnes PRP-039 (Tet/MLS); 50 μg DC or 200 μg ZP per disc
Experimental: (§3) Other propionibacterial strains were also tested, as described in Example 4 below. These included certain antibiotic resistant propionibacteria, such as the two P. acnes strains designated PRP-010 and PRP-039 which are resistant respectively to macrolides-lincosamides-streptogramins-ketolides (MLSK) and to macrolides-lincosamides-streptogramins (MLS) and tetracycline—in other words, PRP-010 is resistant to erythromycin and clindamycin, and PRP-039 to erythromycin, clindamycin and tetracycline.
as §1, §2

P. acnes PRP-010 = type: cell-based, Propionibacterium acnes; settings: P. acnes PRP-010 (MLSK); 50 μg DC or 200 μg ZP per disc
Experimental: as §3, §1, §2

[1] = tested on: C. difficile ATCC 7000057; assay: (S)DDA; type: cell-based, Clostridium difficile; settings: 50 μg DC or 200 μg ZP per disc
Experimental: (§4) The activity of a DC/ZP combination was determined, using (S)DDAs, against two further test micro-organisms, namely C. difficile ATCC 7000057 and Cor. mucifaciens ATCC 700355. A DI/ZP combination was also tested against Cor. mucifaciens.
(§5) In these tests, 50 μg (for C. difficile) or 200 μg (for Cor. mucifaciens) of the DC was loaded onto each disc. The DI and the ZP were both loaded at 200 μg per disc. All the (S)DDA experiments were conducted in triplicate.

P. acnes NCTC 737 [2] = assay: Disc diffusion / synergy disc diffusion assay ((S)DDA); type: cell-based, Propionibacterium acnes
Experimental: (§6) The propionibacteria were cultured and maintained on Wilkins-Chalgren Anaerobe Medium (agar and broth) at pH 6.0; all cultures were incubated anaerobically at 37° C. for 72 hours.
(c) Disc Diffusion Assay (DDA)
This is an internationally recognised standard method for qualitatively assessing the antimicrobial activity of a compound.
A sterile paper disc was impregnated with a sample of the test compound in a suitable solvent and 30 minutes allowed for the solvents to evaporate (where possible). The disc was then placed on an agar plate onto which the test micro-organism had been inoculated. The plate was then incubated under the conditions described above, following which it was examined visually for signs of microbial growth. […] The diameter of this zone of “inhibition” was measured using a ProtoCOL™ automated zone sizer (Synbiosis, Cambridge, UK).
(d) Synergy Disc Diffusion Assay (SDDA)
This is a variation on the DDA method, in which two compounds are tested together for their combined antimicrobial activity.
Two test compounds A and B were placed on a single paper disc and the above described DDA procedure repeated.
Mixtures of the two test compounds were then subjected to SDDA assays as described above.
For the (S)DDA experiments, 50 μg of the DC was loaded onto each disc, and 200 μg of the ZP. All the (S)DDA experiments were conducted in triplicate.
For the (S)DDA experiments, 50 μg of the DI was loaded onto each disc, and 200 μg of the ZP. The DI and ZP were both dissolved in DMSO.
All the (S)DDA experiments were conducted in triplicate.

P. granulosum PRP-055 = assay: (S)DDA; type: cell-based, Propionibacterium granulosum; settings: P. granulosum PRP-055 (resistance None); 50 μg DC or 200 μg ZP per disc
Experimental: as §1, §2

P. granulosum NCTC 11865 = assay: (S)DDA; type: cell-based, Propionibacterium granulosum; settings: P. granulosum NCTC 11865 (resistance None); 50 μg DC or 200 μg ZP per disc
Experimental: as §1, §2

P. acnes NCTC 737 [3] = assay: Minimum Inhibitory Concentration (MIC) assay; type: cell-based, Propionibacterium acnes; settings: for MIC: anaerobic, 37° C., 72 hours
Experimental: as §6
(a) Minimum Inhibitory Concentration (MIC) Assay
This is a standard international method for quantitatively assessing the antimicrobial activity of a compound in a liquid medium. The method used a sterile 96-well microtitre plate, capable of holding about 200 μl of liquid per well. The wells contained liquid culture medium and ranges of decreasing concentrations of the relevant test compound in doubling dilutions (eg, 1000, 500, 250, 125 . . . μg/ml, etc. down to 0.49 μg/ml). The culture medium was as described above.
The wells were inoculated with a liquid suspension of freshly grown micro-organism and incubated under the conditions described above. After incubation, the microtitre plate was examined visually (with the aid of a light box) for cloudiness in each well, which would indicate microbial growth. The MIC value was recorded as the lowest concentration of test compound required to inhibit microbial growth, ie, the lowest concentration for which the liquid in the well remained clear.
The assays were conducted in duplicate and included both negative (culture medium with no micro-organisms) and positive (culture medium plus diluting solvent plus micro-organism) controls.
(§7) The following experiments all used P. acnes NCTC 737 as the test organism.
(§8) MIC, MBC and DDA assays, as described above, were carried out using the test compounds (a) dequalinium chloride (DC), dissolved in ethanol and (b) zinc pyrithione (ZP), dissolved in DMSO. Both compounds were sourced from Sigma-Aldrich, UK.
(§9) The general method of Example 1 was repeated using another bis-quinolinium salt, dequalinium iodide (DI), which was also obtained from Sigma-Aldrich, UK. This compound was tested against P. acnes NCTC 737, both alone and in combination with ZP.

P. acnes NCTC 737 [4] = assay: Minimum Bactericidal Concentration (MBC) assay; type: cell-based, Propionibacterium acnes; settings: for MBC: sub-culture after MIC assay
Experimental: as §6
(b) Minimum Bactericidal Concentration (MBC) Assay
This assay, normally carried out after an MIC assay, determines the minimum concentration of a compound that is lethal to the micro-organism being tested.
These samples were then individually sub-cultured on antibiotic-free agar medium, under the incubation conditions described above. Following incubation they were examined visually for bacterial growth.
The ratio of MIC to MBC should ideally be as close to 1 as possible.
as §7, §8, §9

[5] = tested on: Cor. mucifaciens ATCC 700355; assay: (S)DDA; type: cell-based, Corynebacterium mucifaciens
Experimental: as §4, §5

P. acnes PRP-007 = assay: (S)DDA; type: cell-based, Propionibacterium acnes; settings: P. acnes PRP-007 (Clin); 50 μg DC or 200 μg ZP per disc
Experimental: as §1, §2

P. acnes PRP-046 = assay: (S)DDA; type: cell-based, Propionibacterium acnes; settings: P. acnes PRP-046 (resistance None); 50 μg DC or 200 μg ZP per disc
Experimental: as §1, §2

[6] = Example 1, zone of inhibition diameter, 50 μg DC or 200 μg ZP per disc
[7] = Table 6, 200 μg DC or 200 μg ZP per disc
[8] = Example 3, zone of inhibition diameter, 50 μg DI or 200 μg ZP per disc, both in DMSO
[9] = Table 7, 200 μg DI or 200 μg ZP per disc

Compound | DDA (P. granulosum PRP-019) | DDA (P. granulosum PRP-043) | DDA (P. granulosum PRP-044) | DDA (P. granulosum PRP-005) | DDA (P. granulosum PRP-021) | DDA (P. granulosum PRP-006) | DDA (P. acnes PRP-004) | DDA (P. acnes PRP-023) | DDA (P. acnes PRP-008) | DDA (P. acnes PRP-002) | DDA (P. acnes PRP-102) | DDA (P. acnes PRP-059) | DDA (P. acnes PRP-017) | DDA (P. acnes PRP-003) | DDA (P. acnes PRP-053) | DDA (P. acnes PRP-101) | activity of compound alone (MIC, MBC, DDA data) (P. acnes NCTC 737 [3]) | MIC (P. acnes NCTC 737 [3]) | MIC/MBC ratio (P. acnes NCTC 737 [4]) | MBC (P. acnes NCTC 737 [4]) | further results
Cc1cc(N)c2ccccc2[n+]1CCCCCCCCCC[n+]1c(C)cc(N)c2ccccc21.[Cl-].[Cl-] [DC, dequalinium chloride] | 18.91 mm | 23.02 mm | 17.37 mm | 20.55 mm | 27.95 mm | 26.82 mm | 20.45 mm | 19.32 mm | 19.73 mm | 20.04 mm | 21.68 mm | 19.42 mm | 17.27 mm | 21.27 mm | 21.38 mm | 16.96 mm | active | 7.8 µg/mL | 0.5 | 15.6 µg/mL | DDA (P. acnes PRP-026): 19.01 mm; DDA (P. acnes PRP-068): 20.45 mm; DDA (P. acnes PRP-039): 28.98 mm; DDA (P. acnes PRP-010): 17.37 mm; DDA [1]: 0.0 mm; DDA (P. acnes NCTC 737 [2]; [6]): 16.68 mm; DDA (P. granulosum PRP-055): 29.08 mm; DDA (P. granulosum NCTC 11865): 14.08 mm; DDA [5, 7]: 17.2 mm; DDA (P. acnes PRP-007): 18.91 mm; DDA (P. acnes PRP-046): 21.38 mm
Cc1cc(N)c2ccccc2[n+]1CCCCCCCCCC[n+]1c(C)cc(N)c2ccccc21.[I-].[I-] [DI, dequalinium iodide] |  |  |  |  |  |  |  |  |  |  |  |  |  |  |  |  | active | 3.9 µg/mL | 0.03 | 125 µg/mL | DDA (P. acnes NCTC 737 [2]; [8]): 21.92 mm; DDA [5, 9]: 22.93 mm
zinc pyrithione [ZP] | 19.73 mm | 43.37 mm | 18.50 mm | 20.04 mm | 29.70 mm | 32.58 mm | 12.43 mm | 17.37 mm | 14.90 mm | 25.79 mm | 16.85 mm | 16.34 mm | 19.01 mm | 26.82 mm | 29.91 mm | 14.39 mm | active | 0.98 µg/mL | 0.125 | 7.8 µg/mL | DDA (P. acnes PRP-026): 16.24 mm; DDA (P. acnes PRP-068): 14.90 mm; DDA (P. acnes PRP-039): 29.70 mm; DDA (P. acnes PRP-010): 20.96 mm; DDA [1]: 20.31 mm; DDA (P. acnes NCTC 737 [2]; [6]): 15.85 mm; DDA (P. acnes NCTC 737 [2]; [8]): 46.44 mm; DDA (P. granulosum PRP-055): 50.05 mm; DDA (P. granulosum NCTC 11865): 23.95 mm; DDA [5, 7]: 28.14 mm; DDA [5, 9]: 28.14 mm; DDA (P. acnes PRP-007): 10.79 mm; DDA (P. acnes PRP-046): 35.56 mm
